#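 How tested: cells in 96-well plates exposed to compound for 48 hours at five concentrations. GI50 is the concentration that inhibits growth by half.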 Activity calls are given as the source filed them. Cut-off read from the data, not from the text of the source: active = GI50 up to about 1.1 µM and inactive = higher.
# How the values were obtained:
# Assay in all cases: growth of human tumour cells (NCI), 48 h
# [1] = tested on: IGROV-1
# [2] = tested on: PC-3
# [3] = tested on: SK-MEL-5
# [4] = tested on: EKVX
# [5] = tested on: MDA-MB-435
# [6] = tested on: RPMI-8226
# [7] = tested on: SR
# [8] = tested on: U-251
# [9] = tested on: MOLT-4
# [10] = tested on: SF-268
# [11] = tested on: CAKI-1
# [12] = tested on: HT-29
# [13] = tested on: SNB-19
# [14] = tested on: A498
# [15] = tested on: NCI-H522
# [16] = tested on: SF-539
# [17] = tested on: HOP-62
# [18] = tested on: MDA-MB-231
# [19] = tested on: HOP-92
# [20] = tested on: K562
# [21] = tested on: T47D
# [22] = tested on: TK-10
# [23] = tested on: OVCAR-3
# [24] = tested on: HCC 2998
# [25] = tested on: LOX IMVI
# [26] = tested on: OVCAR-4
# [27] = tested on: UO-31
# [28] = tested on: BT-549
# [29] = tested on: Malme-3M
# [30] = tested on: NCI-H460
# [31] = tested on: 786-0
# [32] = tested on: KM12
# [33] = tested on: SK-MEL-28
# [34] = tested on: NCI-H23
# [35] = tested on: A549
# [36] = tested on: SN12C
# [37] = tested on: SW-620
# [38] = tested on: OVCAR-8
# [39] = tested on: M14
# [40] = tested on: NCI/ADR-RES
# [41] = tested on: UACC-62
# [42] = tested on: NCI-H226
# [43] = tested on: SF-295
# [44] = tested on: MCF7
# [45] = tested on: UACC-257
# [46] = tested on: HCT-116
# [47] = tested on: COLO 205
# [48] = tested on: SK-MEL-2
# [49] = tested on: OVCAR-5
# [50] = tested on: HCT-15
# [51] = tested on: ACHN
# [52] = tested on: DU-145
# [53] = tested on: MDA-N
# [54] = tested on: Hs-578T
# [55] = tested on: RXF 393
# [56] = tested on: SNB-75
# [57] = tested on: SK-OV-3
smiles,measurement,setting,value
Oc1nc(S)nc2c1CN(CCCN1CCOCC1)CN2,GI50,[1],40.6 µM (inactive)
same,GI50,[2],22.1 µM (inactive)
same,GI50,[3],31 µM (inactive)
same,GI50,[4],> 100 µM (inactive)
same,GI50,[5],22.5 µM (inactive)
same,GI50,[6],26.9 µM (inactive)
same,GI50,[7],28.4 µM (inactive)
same,GI50,[8],33.5 µM (inactive)
same,GI50,[9],28.2 µM (inactive)
same,GI50,[10],23.1 µM (inactive)
same,GI50,[11],30.4 µM (inactive)
same,GI50,[12],35.9 µM (inactive)
same,GI50,[13],> 100 µM (inactive)
same,GI50,[14],> 100 µM (inactive)
same,GI50,[15],21.2 µM (inactive)
same,GI50,[16],25.5 µM (inactive)
same,GI50,[17],30.9 µM (inactive)
same,GI50,[18],26.7 µM (inactive)
same,GI50,[19],37.7 µM (inactive)
same,GI50,[20],67.9 µM (inactive)
same,GI50,[21],35.4 µM (inactive)
same,GI50,[22],56.6 µM (inactive)
same,GI50,[23],38.5 µM (inactive)
same,GI50,[24],21.9 µM (inactive)
same,GI50,[25],24.7 µM (inactive)
same,GI50,[26],38.5 µM (inactive)
same,GI50,[27],36.8 µM (inactive)
same,GI50,[28],75.2 µM (inactive)
same,GI50,[29],19.7 µM (inactive)
same,GI50,[30],25.9 µM (inactive)
same,GI50,[31],40.4 µM (inactive)
same,GI50,[32],28.2 µM (inactive)
same,GI50,[33],> 100 µM (inactive)
same,GI50,[34],22.4 µM (inactive)
same,GI50,[35],38.6 µM (inactive)
same,GI50,[36],46.7 µM (inactive)
same,GI50,[37],32 µM (inactive)
same,GI50,[38],31 µM (inactive)
same,GI50,[39],25.5 µM (inactive)
same,GI50,[40],37.8 µM (inactive)
same,GI50,[41],19.7 µM (inactive)
same,GI50,[42],> 100 µM (inactive)
same,GI50,[43],28.2 µM (inactive)
same,GI50,[44],34.7 µM (inactive)
same,GI50,[45],40.2 µM (inactive)
same,GI50,[46],34.4 µM (inactive)
same,GI50,[47],18.3 µM (inactive)
same,GI50,[48],19.9 µM (inactive)
same,GI50,[49],> 100 µM (inactive)
same,GI50,[50],32 µM
same,GI50,[51],29.2 µM (inactive)
same,GI50,[52],34.2 µM (inactive)
same,GI50,[53],43.6 µM (inactive)
same,GI50,[54],> 100 µM (inactive)
COC(=O)C1CC(C=[N+](C)C)=C(SC)N1C(=O)OCc1ccccc1 (configuration not stated),GI50,[1],> 100 µM (inactive)
same,GI50,[2],> 100 µM (inactive)
same,GI50,[55],> 100 µM (inactive)
same,GI50,[3],> 100 µM (inactive)
same,GI50,[4],> 100 µM (inactive)
same,GI50,[5],> 100 µM (inactive)
same,GI50,[6],> 100 µM (inactive)
same,GI50,[7],> 100 µM (inactive)
same,GI50,[8],> 100 µM (inactive)
same,GI50,[9],> 100 µM (inactive)
same,GI50,[10],> 100 µM (inactive)
same,GI50,[11],> 100 µM (inactive)
same,GI50,[12],> 100 µM (inactive)
same,GI50,[13],> 100 µM (inactive)
same,GI50,[14],> 100 µM (inactive)
same,GI50,[15],> 100 µM (inactive)
same,GI50,[17],> 100 µM (inactive)
same,GI50,[18],> 100 µM (inactive)
same,GI50,[19],> 100 µM (inactive)
same,GI50,[20],> 100 µM (inactive)
same,GI50,[21],> 100 µM (inactive)
same,GI50,[22],> 100 µM (inactive)
same,GI50,[23],> 100 µM (inactive)
same,GI50,[24],> 100 µM (inactive)
same,GI50,[26],> 100 µM (inactive)
same,GI50,[27],> 100 µM (inactive)
same,GI50,[28],> 100 µM (inactive)
same,GI50,[56],> 100 µM (inactive)
same,GI50,[29],> 100 µM (inactive)
same,GI50,[30],30.8 µM (inactive)
same,GI50,[31],> 100 µM (inactive)
same,GI50,[32],> 100 µM (inactive)
same,GI50,[33],> 100 µM (inactive)
same,GI50,[34],> 100 µM (inactive)
same,GI50,[35],> 100 µM (inactive)
same,GI50,[37],> 100 µM (inactive)
same,GI50,[38],> 100 µM (inactive)
same,GI50,[39],> 100 µM (inactive)
same,GI50,[40],> 100 µM (inactive)
same,GI50,[41],> 100 µM (inactive)
same,GI50,[43],> 100 µM (inactive)
same,GI50,[44],95.9 µM (inactive)
same,GI50,[45],> 100 µM (inactive)
same,GI50,[46],> 100 µM (inactive)
same,GI50,[47],> 100 µM (inactive)
same,GI50,[48],> 100 µM (inactive)
same,GI50,[49],> 100 µM (inactive)
same,GI50,[50],> 100 µM
same,GI50,[51],> 100 µM (inactive)
same,GI50,[52],> 100 µM (inactive)
same,GI50,[57],> 100 µM (inactive)
same,GI50,[53],> 100 µM (inactive)
same,GI50,[54],> 100 µM (inactive)

# — ChEMBL document CHEMBL1201862, “PubChem BioAssay data set” (2004)
